Source: patent US7678812B2, “Aminotetralin-derived urea modulators of vanilloid VR1 receptor” (Janssen Pharmaceutica NV, priority 2002, dated 2010)
Where two headings read alike, the source gives them in different places.

Assays:
[1] = target: T1, hVR1 receptors (Homo sapiens, UniProt Q8NER1); assay: [3H] RTX binding assay, human VR1; parameters: expressed in transfected cells; host or cells: HEK293 (membrane preparation); conditions: inhibition of [3H] RTX binding, membranes of HEK293 cells transfected with human VR1
T1 sequence (Q8NER1 whole entry): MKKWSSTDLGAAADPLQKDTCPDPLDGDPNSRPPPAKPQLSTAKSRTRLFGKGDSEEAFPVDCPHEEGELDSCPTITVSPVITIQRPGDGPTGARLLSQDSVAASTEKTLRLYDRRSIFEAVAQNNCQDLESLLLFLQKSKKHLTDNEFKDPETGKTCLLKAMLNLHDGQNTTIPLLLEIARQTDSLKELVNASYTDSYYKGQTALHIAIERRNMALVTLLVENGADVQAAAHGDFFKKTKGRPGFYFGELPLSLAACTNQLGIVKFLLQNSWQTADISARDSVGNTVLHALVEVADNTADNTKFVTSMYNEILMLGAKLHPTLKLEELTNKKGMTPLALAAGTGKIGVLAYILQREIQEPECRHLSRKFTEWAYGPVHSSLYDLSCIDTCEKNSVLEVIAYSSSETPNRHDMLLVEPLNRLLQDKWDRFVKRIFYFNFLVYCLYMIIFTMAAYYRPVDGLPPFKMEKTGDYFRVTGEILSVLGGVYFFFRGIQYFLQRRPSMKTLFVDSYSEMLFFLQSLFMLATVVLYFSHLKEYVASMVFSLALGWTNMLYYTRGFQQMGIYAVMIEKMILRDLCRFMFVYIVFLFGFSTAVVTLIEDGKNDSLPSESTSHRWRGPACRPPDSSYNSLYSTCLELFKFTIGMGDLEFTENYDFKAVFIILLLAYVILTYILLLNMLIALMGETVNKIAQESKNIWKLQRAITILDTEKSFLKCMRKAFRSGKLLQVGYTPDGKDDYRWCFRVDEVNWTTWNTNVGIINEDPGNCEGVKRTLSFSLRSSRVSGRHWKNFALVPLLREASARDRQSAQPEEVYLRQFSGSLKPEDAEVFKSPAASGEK
Experimental: Compounds of the present invention were tested for their ability to inhibit the binding of [^3H] RTX to hVR1 receptors in a [^3H] RTX binding assay as previously described (Zhang, Sui-Po. Improved ligand binding assays for vanilloid receptors. PCT Int. Appl. (2002), 29 pp. CODEN: PIXXD2 WO 0233411 A1 20020425 AN 2002:315209; Grant, Elfrida R.; Dubin, Adrienne E.; Zhang, Sui-Po; Zivin, Robert A.; Zhong, Zhong Simultaneous intracellular calcium and sodium flux imaging in human vanilloid receptor 1 (VR1)-transfected human embryonic kidney cells: a method to resolve ionic dependence of VR1-mediated cell death. Journal of Pharmacology and Experimental Therapeutics (2002), 300(1), 9-17.)
HEK293 cells were transfected with human VR1 vanilloid receptors and washed with Hank's Balanced Salt Solution, dissociated with cell dissociation buffer (Sigma), and then centrifuged at 1000×g for 5 min. Cell pellets were homogenized in cold 20 mM HEPES buffer, pH 7.4, containing 5.8 mM NaCl, 320 mM sucrose, 2 mM MgCl2, 0.75 CaCl2 and 5 mM KCl and centrifuged at 1000×g for 15 min. The resultant supernate was then centrifuged at 40000×g for 15 min. The pelleted membranes were kept in an −80° C. freezer.
Approximately 120 μg protein/ml from membranes were incubated with indicated concentrations of [^3H] RTX in 0.5 ml of the HEPES buffer (pH 7.4) containing 0.25 mg/mL fatty acid-free bovine serum albumin at 37° C. for 60 min. The reaction mixture was then cooled to 4° C., 0.1 mg α1-acid glycoprotein added to each sample and incubated at 4° C. for 15 min. The samples were centrifuged at 18500×g for 15 min. The tip of the microcentrifuge tube containing the pellet was cut off. Bound radioactivity was quantified by scintillation counting. Non-specific binding was tested in the presence of 200 nM unlabeled RTX.

[2] = target: T2, Rat VR1 (Rattus norvegicus, UniProt O35433); assay: [3H]-RTX binding assay using rat tissue (spinal cord); parameters: Rat spinal cord was homogenized twice with a Polytron; from tissue; host or cells: rat spinal cord membranes; conditions: rat spinal cord membranes
T2 sequence (O35433 whole entry): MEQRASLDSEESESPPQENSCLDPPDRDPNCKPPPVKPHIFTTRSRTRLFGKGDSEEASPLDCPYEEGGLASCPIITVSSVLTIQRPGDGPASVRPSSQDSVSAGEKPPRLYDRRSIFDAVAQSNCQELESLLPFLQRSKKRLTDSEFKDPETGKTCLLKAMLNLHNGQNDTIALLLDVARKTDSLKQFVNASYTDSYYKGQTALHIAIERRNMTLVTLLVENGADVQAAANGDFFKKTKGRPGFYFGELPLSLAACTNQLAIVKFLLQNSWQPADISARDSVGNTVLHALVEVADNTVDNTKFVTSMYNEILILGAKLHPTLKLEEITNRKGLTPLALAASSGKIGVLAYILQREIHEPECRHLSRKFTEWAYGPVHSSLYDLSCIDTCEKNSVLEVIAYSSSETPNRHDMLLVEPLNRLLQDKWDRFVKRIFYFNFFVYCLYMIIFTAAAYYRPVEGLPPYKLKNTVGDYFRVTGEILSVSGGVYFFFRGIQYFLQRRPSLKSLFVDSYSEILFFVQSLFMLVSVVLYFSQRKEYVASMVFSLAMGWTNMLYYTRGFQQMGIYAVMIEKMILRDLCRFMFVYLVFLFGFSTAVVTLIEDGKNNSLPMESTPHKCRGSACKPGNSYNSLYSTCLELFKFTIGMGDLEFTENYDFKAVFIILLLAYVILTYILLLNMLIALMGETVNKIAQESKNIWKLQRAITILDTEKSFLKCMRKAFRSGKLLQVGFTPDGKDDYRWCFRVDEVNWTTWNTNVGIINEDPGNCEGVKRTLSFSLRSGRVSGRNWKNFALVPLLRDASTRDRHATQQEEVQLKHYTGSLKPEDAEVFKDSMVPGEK
Experimental: Alternatively, a binding assay using rat tissue was used. Rat spinal cord was homogenized twice with a Polytron and centrifuged at 3000 rpm for 10 min in HEPES buffer containing 20 mM HEPES, pH 7.4, NaCl 5.8 mM, sucrose 320 mM, MgCl2 2 mM, CaCl2 0.75 mM and KCl 5 mM. The supernatant was then centrifuged at 18,000 rpm for 20 min. The pellet was saved in a tube and 10 ml assay buffer was added into the tube. The pellet and buffer were mixed with a Polytron. The assay contained 120 μg/ml membrane protein and 0.3-0.6 nM [^3H]-RTX (NEN, Boston) in a total volume of 0.5 ml HEPES buffer. Following-incubation for 60 min at 37 C, the samples were cooled down on ice, and 100 mg of α-acid glycoprotein were added into the samples. After centrifugation at 13,000 rpm for 15 min, the supernatant was aspirated and the tips of tubes were cut off and placed into 6 ml vials. Data were calculated according to the equation: % inhibition=(total binding−binding)*100/(total binding−non specific binding). Ki value values were calculated using a Prism program.

[3] = target: T3, VR1 expressed endogenously on small rat dorsal root ganglion (DRG) neurons (Rattus norvegicus, UniProt O35433); assay: Electrophysiologic functional assay using dissociated rat DRG cells (whole cell patch clamp); assay type: cell-based; conditions: for inhibition of the response to 1 uM capsaicin: capsaicin-induced currents in rat DRG neurons; for % of the initial CAP response in presence of 1 uM CAP / % of the initial CAP response in presence of 10 uM CAP: initial response to 0.3 uM capsaicin
T3 construct: VR1 expressed endogenously on small rat dorsal root ganglion (DRG) neurons; endogenous in cells; host or cells: dissociated DRG neurons from normal rats
T3 sequence (O35433 whole entry): as above
Experimental: Compounds 42, 95, 101, 105 and 106 were tested for their activity on VR1 expressed endogenously on small rat dorsal root ganglion (DRG) neurons. DRG neurons from normal rats were dissociated (see methods in Chaplan et al., 2003) and whole cell currents mediated by VR1 were recorded using the whole cell patch clamp technique. […] This was followed by application of 10 μM CAP in the presence of compound. […] The ability of 1 and 10 μM CAP to cause an increased current after exposure to a compound of the invention was compared to controls.

[4] = test system: carrageenan paw-induced thermal hyperalgesia; assay: Carrageenan paw-induced thermal hyperalgesia; assay type: in vivo, rat; conditions: for % Recovery: at 1 mg/ml; for ED50: Rattus norvegicus, po
Experimental: Each rat was placed on a heated surface (51° C.) in order to measure the time necessary to elicit a response, and an initial (baseline) response time to a thermal stimuli was recorded for each animal. A response is defined as any shaking, licking, or tucking of the treated paw or jumping. Animals not treated with a test compound respond in approximately 20 seconds. The maximal exposure time permitted is 60 seconds to prevent tissue damage. Rats were injected with an irritant (e.g., 1% carrageenan solution in 0.9% saline) subcutaneously into the sub-plantar tissue of the left hind paw to stimulate an acute inflammatory reaction.
Two hours later, the response time of the animal to the thermal stimulus was evaluated and compared to the animal's baseline response time. This shorter response time was recorded as percent hyperalgesia (% H). A cut-off value for % H (usually 75%) was used during analysis to ensure that the animals were hyperalgesic. Animals were then dosed with test drug or vehicle.
At some time(s) later (typically 45 and 90 minutes), the response time of the animal to the thermal stimulus was again evaluated. For each time point, a percent reversal of hyperalgesia (% R) was calculated using the following formula: % R=(Drug Latency−Carrageenan latency)/(Baseline latency−Carrageenan latency). ED50 values were calculated from % R obtained at several drug doses.

[5] = target: T1, hVR1 receptors; assay: Broadly stimulated recombinant human VR1 functional assay (Ca2+ influx, FLIPR); assay type: cell-based; parameters: expressed in transfected cells; host or cells: HEK293
[6] = target: T2, Rat VR1; assay: Broadly stimulated recombinant rat VR1 functional assay (Ca2+ influx, FLIPR); assay type: cell-based; parameters: expressed in transfected cells; conditions: Ca2+ influx
Excerpt: When nociceptors are exposed to tissue damaging stimuli, VR1 receptors are activated by a plethora of stimuli. In an effort to identify potent and efficacious antagonists at human and rat VR1 that were active under conditions simulating aspects of in vivo inflammation functional assays were developed using FLIPR to determine antagonist activity against endogenous activators and stimuli likely to be present in inflammation. Cell lines were constructed that stably expressed recombinant rat VR1 (rVR1/HEK293). Cells were exposed to various stimuli at their EC80, with the exception of the low pH and DTT stimuli.
Phoshorylation by PKC. […] Cells were challenged with 300 nM PMA (˜EC80) after 3 min in the indicated antagonist.
Anandamide. Anandamide is a brain-derived cannabinoid ligand that acts as a near full agonist at VR1 at low μM concentrations [Smart, 2000 #507].
Reactive oxygen species: Disturbances in the regulatory activities of free radicals may play a role in inflammation [Winrow, 1993]. Reactive oxygen species (ROS) such as H2O2 are formed in inflamed joints.
Reducing agents: The reducing agent DTT also directly activates VR1 [Vyklicky, 2002]. Cells were challenged with 5-10 mM DTT to stimulate VR1 after 3 min incubation in compound.
Since many of our animal models were in rat, we cloned the rat VR1 and expressed it stably in HEK293 cells.

[7] = reversal of hyperalgesia, read-out: CgHP ED50
[8] = 1.5 h, p.o., at 90 min, read-out: ED50

| SMILES | Ki [1] [nM] | Ki [2] [nM] | also measured |
| --- | --- | --- | --- |
| O=C(Nc1cccc2c[n+]([O-])ccc12)NC1CCc2cc(F)ccc2C1Cc1cccc(C(F)(F)F)c1 (single isomer, unassigned) [Compound 121] | 5.75 | 88.5 | % Recovery ([4]; at 90 min): 80.1% |
| C=CCC1c2ccccc2CCC1NC(=O)Nc1cccc2cnccc12 (stereo not drawn) [Compound 57] | 15.4 | – | ED50 [4, 7]: 0.354 mg/kg |
| Oc1cc2c(cc1O)CN(C(=S)NCCc1ccc(Cl)cc1)CCC2 [Capsazepine, capsazepine, reference compound] | – | – | IC50 ([5]; human recombinant receptor, FIG. 1, read-out: potency to inhibit Ca2+ activity induced by the panel of stimuli): 100 to 300 nM |
| Cl.Cl.Cl.Cl.Cl.Cl.N.N.N.N.N.N.N.N.N.N.N.N.N.N.[O-2].[O-2].[Ru+3].[Ru+3].[Ru+4] [Ruthenium Red, ruthenium red, reference compound] | – | – | IC50 ([6]; recombinant rat VR1, stimulus 300 nM PMA, read-out: IC50, PKC phosphorylation): 300 nM; IC50 ([6]; recombinant rat VR1, stimulus anandamide 10 μM, read-out: IC50, Anandamide): 1860 nM; IC50 ([5]; recombinant human VR1, stimulus 300 nM PMA, Ca2+ influx, read-out: IC50, PKC phosphorylation): 500 nM; IC50 ([5]; recombinant human VR1, stimulus low pH (pH 6.5), Ca2+ influx, read-out: IC50, Low pH): 500 nM |
| COc1ccc2c(c1)CC[C@@H](NC(=O)Nc1cccc3cnccc13)[C@@H]2Cc1ccc(F)cc1F (relative stereo) [Compound 91] | – | 1480 | – |
| COCOc1ccc(CNC(=S)NC2CCc3ccccc3C2Cc2cccnc2)cc1OC (stereo not drawn) [Compound 4] | – | – | ED50 [4, 7]: 0.804 mg/kg |
| O=C(Nc1cccc2cnccc12)NC1CCc2ccccc2C12Cc1ccccc1C2 (stereo not drawn) [Compound 122, Spiro{indan-2,1′-(1′,2′,3′,4′-tetrahydronaphthalene)-2′-yl}-3-isoquinolin-5-yl-urea] | 73 | 1700 | – |
| O=C(Nc1cccc2cnccc12)NC1CCc2cc(F)ccc2C1Cc1ccc(C(F)(F)F)cc1 (stereo not drawn) [Compound 107] | 0.93 | 28.7 | ED50 [4, 8]: 0.92 mg/kg |
| COc1ccc2c(c1)CCC(NC(=S)NCCc1ccc(Cl)cc1)C2Cc1ccccc1 (stereo not drawn) [Compound 17] | – | – | ED50 [4, 7]: 20 mg/kg |
| OO [Compound H2O2, H2O2, reference compound] | – | – | EC80 for H2O2-induced Ca2+ flux ([5]; VR1/HEK cells, species not stated): 0.015 % H2O2 |
| COc1ccc2c(c1)CC[C@@H](NC(=O)Nc1cccc3cnccc13)[C@H]2Cc1ccc(F)cc1F (relative stereo) [Compound 90] | – | 259 | – |
| O=C(Nc1cccc2c[n+]([O-])ccc12)NC1CCc2cc(F)ccc2C1Cc1cccc(C(F)(F)F)c1 (single isomer, unassigned) [Compound 120] | 95.7 | 10000 | % Recovery ([4]; at 90 min): 83.0% |

Continued, in another order:

| Ki [1] [nM] | Ki [2] [nM] | SMILES | also measured |
| --- | --- | --- | --- |
| 0.5 | 152 | O=C(Nc1cccc2cnccc12)NC1CCc2cc(F)ccc2C1Cc1cccc(C(F)(F)F)c1 (single isomer, unassigned) [Compound 119] | – |
| 1.12 | 53.1 | Cc1cc2c(NC(=O)NC3CCc4cc(F)ccc4C3Cc3ccccc3)cccc2cn1 (single isomer, unassigned) [Compound 101] | inhibition of the response to 1 uM capsaicin [3]: dose dependent; % of the initial CAP response in presence of 1 uM CAP ([3]; compound concentration 0.03 uM): 14%; % of the initial CAP response in presence of 10 uM CAP ([3]; compound concentration 0.03 uM): 54%; % of the initial CAP response in presence of 1 uM CAP ([3]; compound concentration 0.1 uM): 0%; % of the initial CAP response in presence of 10 uM CAP ([3]; compound concentration 0.1 uM): 0% |
| 1.94 | – | O=C(Nc1cccc2cnccc12)NC1CCc2c(Cl)cccc2C1Cc1ccccc1 (stereo not drawn) [Compound 42] | % of the initial CAP response in presence of 1 uM CAP ([3]; compound concentration 0.3 uM): 0% |
| 15.5 | 1270 | O=C(Nc1cccc2cnccc12)N[C@@H]1CCc2cc(F)ccc2[C@@H]1Cc1ccoc1 (relative stereo) [Compound 88] | – |
| 2.16 | 169 | O=C(Nc1cccc2cnccc12)NC1CCc2cc(F)ccc2C1Cc1cccc(C(F)(F)F)c1 (single isomer, unassigned) [Compound 118] | – |
| 1.7 | 217 | O=C(Nc1cccc2cnccc12)NC1CCc2cc(Cl)ccc2C1Cc1ccccc1 (stereo not drawn) [Compound 95] | inhibition of the response to 1 uM capsaicin [3]: dose dependent; % of the initial CAP response in presence of 1 uM CAP ([3]; compound concentration 0.03 uM): 78%; % of the initial CAP response in presence of 10 uM CAP ([3]; compound concentration 0.03 uM): 1073% |
| – | 1080 | COc1ccc2c(c1)CCC(NC(=O)Nc1cccc3cnccc13)C2Cc1ccsc1 (stereo not drawn) [Compound 89] | – |
| 5.25 | 781 | Cc1cc2c(NC(=O)NC3CCc4cc(F)ccc4C3Cc3ccccc3)cccc2cn1 (single isomer, unassigned) [Compound 100] | – |
| 8.6 | 2840 | O=C(Nc1cccc2c[n+]([O-])ccc12)NC1CCc2cc(Cl)ccc2C1Cc1ccccc1 (stereo not drawn) [Compound 106] | % of the initial CAP response in presence of 1 uM CAP ([3]; compound concentration 1 uM): 2%; % of the initial CAP response in presence of 10 uM CAP ([3]; compound concentration 1 uM): 11%; ED50 [4, 8]: 0.027 mg/kg |
| 0.531 | 185 | O=C(Nc1cccc2cnccc12)NC1CCc2cc(F)ccc2C1Cc1cccc(C(F)(F)F)c1 (racemic) [Compound 110] | % Recovery ([4]; at 90 min): 64.3% |
